The values below come from PubChem BioAssay (NCI).

“And” between values parts separate entries of the source, which are not always exact repeats. Equal values may be shown once.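 Dose response: 5 concentrations. Exposure: 48 h. Format: 96-well plates. Endpoint: linear interpolation; highest concentration if not reached. At the GI50, growth is halved. TGI: concentration producing complete growth inhibition.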

Experiment in all cases: NCI tumour cell line growth inhibition, 48 h
For experiment [1], the system named is HCT-15 colon.
The test system of experiment [2] is MOLT-4 leukemia.
Experiment [3] has as its system NCI-H23 lung.
For experiment [4], the system named is RPMI-8226 leukemia.
Experiment [5] concerns RXF 393 renal.
Experiment [6] concerns SF-268 CNS.
Experiment [7] relates to SK-MEL-5 melanoma.
Experiment [8] relates to SNB-19 CNS.
Experiment [9] deals with SNB-75 CNS.
Experiment [10] relates to TK-10 renal.

For the compound `CN(C)CCNC(=O)c1cccc2ccc(-c3ccc(O)cc3)nc12`, the TGI in experiment [1] was 14.4 µM; in experiment [2] it was 0.692 µM; in experiment [3], 10.1 µM and 12.4 µM; in [4], 8.56 µM; in [5], 17.4 µM and 19.8 µM; in [6] it was 17.3 µM and 19.3 µM. Further, the TGI in experiment [7] was 2.96 µM; in experiment [8], 15.4 µM and 12 µM; in experiment [9], 11.7 µM; in [10], 9.57 µM. Further, the GI50 in experiment [5] was 5.65 µM; in experiment [8] it was 2.41 µM.
Take `CC(C)C(CCl)NC(=O)c1cccc(C(=O)N[C@H](CCl)C(C)C)n1` (stereo in doubt): the TGI in experiment [1], in [2], in experiment [3], in experiment [4], in experiment [5] and in experiment [6] was more than 100 µM each time. The TGI in experiment [7], in experiment [8], in [9] and in [10] was more than 100 µM throughout.
As to `O=C(O)COc1ccc2c(=O)c3sc4c(=O)c5ccccc5c(=O)c4c3c(=O)c2c1`, the GI50 in experiment [1] was 4.41 µM; in [2], 21.5 µM; in experiment [3] it was 2.71 µM; in experiment [4], 27.6 µM; in experiment [5] it was 12.6 µM; in experiment [6], 14.8 µM. For the same compound, the GI50 in experiment [7] was 1.75 µM; in [8], 7.51 µM; in [9], 2.06 µM; in experiment [10], 23 µM. For the same compound, the TGI in experiment [1] turned out to be 18.2 µM; in [2], 52.6 µM; in [3] it was 8.57 µM; in [4] it was 77.6 µM; in experiment [5], 28.1 µM; in [6] it was 48.9 µM. Besides, the TGI in experiment [7] turned out to be 3.35 µM; in experiment [8] it was 23.7 µM; in experiment [9] it was 11.7 µM; in experiment [10], 46.5 µM.
Turning to `C/C=C(\C)C(=O)O[C@H]1C=CC(=O)O[C@H]1CCC(=O)[C@H](C)O`, the GI50 in experiment [1] was 11.6 µM; in [2], 17.6 µM; in [3] it was 20.5 µM; in experiment [4] it was 8.88 µM; in experiment [5] it was 7.08 µM; in experiment [6], 11.3 µM. The GI50 in experiment [7] is 13.8 µM; in experiment [8], 25.7 µM; in [9] it was 20.4 µM; in [10], 17.7 µM. For the same compound, the TGI in experiment [1] stood at 27.1 µM; in experiment [2], 41.8 µM; in [3], 43.9 µM; in [4], 34 µM; in experiment [5] it was 28.5 µM; in experiment [6], 26.1 µM. For the same compound, the TGI in experiment [7] stood at 27.1 µM; in experiment [8], 83.5 µM; in experiment [9], 41.4 µM; in [10] it was 34 µM.
As to `Nc1ccc([N+](=O)[O-])cc1N=C/C=C/c1ccccc1`, the GI50 in experiment [1] was 13.5 µM; in [2], 3.89 µM; in experiment [3], 18.4 µM; in [4], 5.05 µM; in [5] it was 22.7 µM; in experiment [6] it was 5.91 µM. In addition, the GI50 in experiment [7] is 10.7 µM; in experiment [8], 31.5 µM; in experiment [9], 10.8 µM; in [10] it was 33.3 µM. Moreover, the TGI was more than 100 µM in experiment [1]; more than 100 µM in experiment [2]; more than 100 µM in experiment [3]; more than 100 µM in experiment [4]; more than 100 µM in experiment [5]; 40.6 µM in [6]. For the same compound, the TGI in [7] was 48.8 µM; in experiment [8], more than 100 µM; in experiment [9], 96.6 µM; in experiment [10] it was more than 100 µM.
Regarding `COc1cccc(F)c1C(=O)c1cnc(NC2CCN(S(C)(=O)=O)CC2)nc1N`, the GI50 in [1] is 3.63 µM; in experiment [2], 2.14 µM; in experiment [3], 3.15 µM; in experiment [4] it was 1.96 µM; in experiment [5] it was 1.88 µM; in experiment [6], 5.96 µM. The GI50 was 2.06 µM in experiment [7], 3.46 µM in experiment [8], 4.13 µM in [9] and 4.03 µM in [10]. The TGI in [1] is more than 25 µM; in [2], more than 14.7 µM; in experiment [3] it was 21.7 µM; in experiment [4], 11.3 µM; in experiment [5] it was 6.19 µM; in experiment [6] it was more than 21.4 µM. Also, the TGI in experiment [7] was more than 23.3 µM; in [8] it was more than 25 µM; in [9], 9.57 µM; in experiment [10] it was more than 25 µM.
As to `COc1cc(-c2oc(=O)ccc2C#Cc2ccccn2)cc(OC)c1OC`, the GI50 in experiment [1] is 1.54 µM; in experiment [2], 4.14 µM; in [3], 2.4 µM; in [4], 1.8 µM; in [5], 0.273 µM; in experiment [6], 5.56 µM. The GI50 was 2.09 µM in experiment [7], 3.8 µM in [8], 1.93 µM in experiment [9] and 4.98 µM in experiment [10]. The TGI is more than 100 µM in experiment [1]; more than 100 µM in experiment [2]; more than 29.4 µM in [3]; 9.59 µM in experiment [4]; 2.09 µM in [5]; more than 100 µM in [6]. Also, the TGI in [7] was 11.2 µM; in experiment [8], more than 76.1 µM; in experiment [9] it was more than 29.8 µM; in experiment [10], more than 100 µM.
As for `Cn1c(I)c(C#CCO[Si](C)(C)C(C)(C)C)c(=O)[nH]c1=O`, the GI50 in [1] is 13.5 µM; in [2], 1.82 µM; in [3], 19.3 µM; in experiment [4] it was 4.39 µM; in experiment [5], 18.8 µM; in experiment [6], 15.9 µM. Further, the GI50 is 17.1 µM in experiment [7], more than 100 µM in experiment [8], 16.2 µM in [9] and 16.3 µM in [10]. For the same compound, the TGI worked out at 27.6 µM in experiment [1]; 4.32 µM in experiment [2]; 39.5 µM in experiment [3]; 14.2 µM in experiment [4]; 34.3 µM in experiment [5]; 30.2 µM in experiment [6]. Moreover, the TGI is 31.3 µM in experiment [7], more than 100 µM in experiment [8], 37.7 µM in [9] and 30.2 µM in [10].
